MIC data for 4 molecules are collected here from patent US20020132782A1, “9-amino erythromycin derivatives with antibacterial activity” (priority 2001, published 2002).

Structures are written as SMILES. In brackets after ≈: the same amount, converted by molar mass.

What all share (experiment): In vitro assay of antibacterial activity (agar dilution MIC)
Common to all, as to type: cell-based
Background: In agar dilution the substance is mixed into plates at graded concentrations.

The test system of test [1] is Haemophilus influenzae DILL AMP R. To be noted: organism code CC, BHI agar, 35-37° C., 20 to 24 hours. The procedure: (§1) Representative compounds of the present invention were assayed in vitro for antibacterial activity as follows: Twelve petri dishes containing successive aqueous dilutions of the test compound mixed with 10 mL of sterilized Brain Heart Infusion (BHI) agar (Difco 0418-01-5) were prepared. Each plate was inoculated with 1:100 (or 1:10 for slow-growing strains, such as Micrococcus and Streptococcus) dilutions of up to 32 different microorganisms, using a Steers replicator block. The inoculated plates were incubated at 35-37° C. for 20 to 24 hours. In addition, a control plate, using BHI agar containing no test compound, was prepared and incubated at the beginning and end of each test.
(§2) An additional plate containing a compound having known susceptibility patterns for the organisms being tested and belonging to the same antibiotic class as the test compound was also prepared and incubated as a further control, as well as to provide test-to-test comparability. […] After incubation, each plate was visually inspected. The minimum inhibitory concentration (MIC) was defined as the lowest concentration of drug yielding no growth, a slight haze, or sparsely isolated colonies on the inoculum spot as compared to the growth control.

Test [2] concerns Staphylococcus aureus 1775. To be noted: organism code BB, BHI agar, 35-37° C., 20 to 24 hours. As to the method: as §1, §2
Test [3] concerns Staphylococcus aureus ATCC 6538P. As to conditions: organism code AA, BHI agar, 35-37° C., 20 to 24 hours. As to the method: as §1, §2
The test system of test [4] is Streptococcus pneumoniae 5649. As to conditions: organism code JJ, BHI agar, 35-37° C., 20 to 24 hours. The procedure:
as §1, §2

Test [5] deals with Streptococcus pneumoniae ATCC 6303. As to conditions: organism code GG, BHI agar, 35-37° C., 20 to 24 hours. As to the method: as §1, §2
Test [6] concerns Streptococcus pyogenes EES61. As to conditions: organism code DD, BHI agar, 35-37° C., 20 to 24 hours. As to the method:
as §1, §2

The test system of test [7] is Streptococcus pyogenes PIU 2548. To be noted: organism code FF, BHI agar, 35-37° C., 20 to 24 hours. The procedure:
as §1, §2

For test [8], the system named is Streptococcus pneumoniae 5737. As to conditions: organism code HH, BHI agar, 35-37° C., 20 to 24 hours. As to the method: as §1, §2
Test [9] deals with Streptococcus pyogenes 930. To be noted: organism code EE, BHI agar, 35-37° C., 20 to 24 hours. As to the method: as §1, §2

With `CC[C@H]1OC(=O)[C@H](C)[C@@H](O[C@H]2C[C@@](C)(OC)[C@@H](O)[C@H](C)O2)[C@H](C)[C@@H](O[C@@H]2O[C@H](C)C[C@H](N(C)C)[C@H]2O)[C@](C)(O)C[C@@H](C)C(=O)[C@H](C)[C@@H](O)[C@]1(C)O` [Ery. A, Erythromycin A, reference compound], the MIC was 4 µg/mL (≈ 5.45 µM) in test [1]; over 100 µg/mL in test [2]; 0.2 µg/mL (≈ 0.273 µM) in [3]; 16 µg/mL (≈ 21.8 µM) in [4]; 0.06 µg/mL (≈ 0.0818 µM) in test [5]; 0.06 µg/mL (≈ 0.0818 µM) in [6]. The molecule further came in with an MIC in test [7] of 32 µg/mL (≈ 43.6 µM).

On to `CCC1OC(=O)C(C)C(=O)C(C)C(OC2OC(C)CC(N(C)C)C2O)C(C)(OCC=Cc2cnc3ccccc3c2)CC(C)C(N)C(C)C(O)C1(C)O` (stereo not drawn) [Example 7, Compound of Formula (II): R^1 is (Quinolin-3-yl)CH═CHCH2; R^2 is Hydrogen; R^3 is Hydrogen; R^4 is Hydrogen; R^5 is Hydrogen; R^p is Hydrogen], for which the MIC in [1] is 16 µg/mL; in test [2], over 100 µg/mL; in [3], 0.78 µg/mL; in [4], 1 µg/mL; in [8], over 64 µg/mL; in test [5], 0.5 µg/mL. The MIC was found to be 0.25 µg/mL in test [6] and 2 µg/mL in test [7].

In the case of `CCC1OC(=O)C(C)C(=O)C(C)C(OC2OC(C)CC(N(C)C)C2O)C(C)(OCC=Cc2cnc3ccccc3c2)CC(C)C2NC(=O)OC(C2C)C1(C)O` (stereo not drawn) [Example 8, Compound of Formula (II): R^1 is (Quinolin-3-yl)CH═CHCH2; R^2 is Hydrogen; R^3 and R^4 together are —C(O)—; R^5 is Hydrogen; R^p is Hydrogen], the MIC in [1] was 16 µg/mL; in test [2], over 100 µg/mL; in test [3] it was 0.39 µg/mL; in [4], 2 µg/mL; in test [8] it was 128 µg/mL; in [5], 0.03 µg/mL. The MIC in test [9] was over 128 µg/mL; in [6], 0.03 µg/mL; in test [7], 1 µg/mL.

`CCC1OC(=O)C(C)C(=O)C(C)C(OC2OC(C)CC(N(C)C)C2O)C(C)(OCC=Cc2cnc3ccccc3c2)CC(C)C(N)C(C)C2OC(=O)OC12C` (stereo not drawn) [Example 9, Compound of Formula (II): R^1 is (Quinolin-3-yl)CH═CHCH2; R^2 is Hydrogen; R^3 is Hydrogen; R^4 and R^5 are —C(O)—; R^p is Hydrogen]: the MIC was 32 µg/mL in test [1]; over 100 µg/mL in test [2]; 0.2 µg/mL in test [3]; 32 µg/mL in [4]; over 128 µg/mL in test [8]; 2 µg/mL in test [5]. Further, the values for the MIC in test [9], in [6] and in test [7] were over 128 µg/mL, 1 µg/mL and over 128 µg/mL, respectively.
